Source: ChEMBL document CHEMBL1138174, “Novel HIV-1 integrase inhibitors derived from quinolone antibiotics” (J Med Chem, 2006)
pEC50, pIC50: −log10 of the molar value.

What was measured:
[1] = biological target: Human immunodeficiency virus type 1 integrase (Human immunodeficiency virus 1, UniProt Q7ZJM1); assay: Inhibition of recombinant HIV1 integrase strand transfer activity
MT4 [2] = assay: Antiviral activity against HIV1 3b in human MT4 cells; assay type: functional, cell-based
MT4 [3] = assay: Cytotoxic activity against human MT4 cells infected with HIV1 by MTT assay; assay type: functional

Sequence of Human immunodeficiency virus type 1 integrase (Q7ZJM1 whole entry): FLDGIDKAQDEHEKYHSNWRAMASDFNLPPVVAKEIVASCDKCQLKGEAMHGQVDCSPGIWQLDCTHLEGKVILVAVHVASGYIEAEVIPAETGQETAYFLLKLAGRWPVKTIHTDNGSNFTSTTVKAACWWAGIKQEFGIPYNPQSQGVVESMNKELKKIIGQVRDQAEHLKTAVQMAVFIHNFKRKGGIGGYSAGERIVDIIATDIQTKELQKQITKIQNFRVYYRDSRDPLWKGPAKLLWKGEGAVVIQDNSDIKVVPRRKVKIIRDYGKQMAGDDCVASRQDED

Compound	pIC50 [1]	pEC50 (MT4 [2])	Activity (MT4 [3]) [µM]
COc1cc2c(cc1Cc1cccc(Cl)c1F)c(=O)c(C(=O)O)cn2CCO	8.04	7.77	5.3
COc1cc2c(cc1Cc1cccc(Cl)c1F)c(=O)c(C(=O)O)cn2[C@H](CO)C(C)C		9.05	4
CC(C)[C@@H](CO)n1cc(C(=O)O)c(=O)c2cc(Cc3cccc(Cl)c3F)ccc21		8.12	14
O=C(O)c1c[nH]c2ccc(Cc3cccc(Cl)c3F)cc2c1=O	7.36	6.09	>12
O=C(O)c1cn(CCO)c2ccc(Cc3cccc(Cl)c3F)cc2c1=O	7.62	7.12	>15
O=C(O)c1cnc2ccc(Cc3ccccc3)cc2c1O	5.80	< 4.52	>30
O=C(NCc1ccc(F)cc1)c1nc(N2CCCCS2(=O)=O)c2cccnc2c1O	7.64	8.44	0.7
